According to patent US7713994B2 (Wyeth LLC, priority 2005, dated 2010):
Read-outs that look alike come from different tables or passages of the source.

How the values were obtained:
[1] = I.V. and P.O. Dosing in Mice; type: in vivo; settings: for AUC(0-inf) / bioavailability: mouse, in vivo; for bioavailability: po 50 mg/kg vs i.v. 2 mg/kg
MCF-7 = assay: Cytotoxicity assay (SRB), MCF-7; type: cell-based; settings: Homo sapiens, MCF7, 72 h, MCF-7 cells, SRB, read-out: In Vitro Cellular Activity IC50 MCF-7
Outline: (§1)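 Plate cells, let them attach overnight, add compound dilutions in RPMI 1640/5% FBS, and incubate 3 days (BT474 6 days). Then fix with TCA, stain with SRB, dissolve the dye in Tris and read at 540 nm.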

cyclin E/CDK2 enzyme = molecular target: T1, cyclin E/CDK2 enzyme (Homo sapiens, UniProt P24941); assay: CDK2 ELISA kinase assay (phospho-Rb ser 795 detection); type: biochemical
T1 construct: made in house; host or cells: Sf9 insect cells, recombinant baculovirus
Outline: (§2)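 Wells were coated overnight with GST-Rb C-terminal fragment, then blocked. Compound (10 ug/ml final) and cyclin/CDK enzyme from baculovirus-infected Sf9 cells with 200 μM ATP reacted 1 h at 30° C. Ser795 phosphorylation was detected by ELISA at 450 nm.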

BT474 = assay: Cytotoxicity assay (SRB), BT474; type: cell-based
Outline: as §1

LoVo = assay: Cytotoxicity assay (SRB), LoVo; type: cell-based; settings: Homo sapiens, LoVo, 72 h, LoVo cells, SRB, read-out: In Vitro Cellular Activity IC50 LOVO
Outline: as §1

HCT-116 = assay: Cytotoxicity assay (SRB), HCT-116; type: cell-based; settings: Homo sapiens, HCT-116, 72 h, HCT116 cells, SRB, read-out: In Vitro Cellular Activity IC50 HCT116
Outline: as §1

cyclin D1/cdk 4 enzyme = molecular target: T2, cyclin D1/cdk 4 enzyme (Homo sapiens, UniProt P11802); assay: CDK4 ELISA kinase assay (phospho-Rb ser 795 detection); type: biochemical
T2 construct: made in house; host or cells: Sf9 insect cells, recombinant baculovirus
T2 sequence (P11802 whole entry, species assumed): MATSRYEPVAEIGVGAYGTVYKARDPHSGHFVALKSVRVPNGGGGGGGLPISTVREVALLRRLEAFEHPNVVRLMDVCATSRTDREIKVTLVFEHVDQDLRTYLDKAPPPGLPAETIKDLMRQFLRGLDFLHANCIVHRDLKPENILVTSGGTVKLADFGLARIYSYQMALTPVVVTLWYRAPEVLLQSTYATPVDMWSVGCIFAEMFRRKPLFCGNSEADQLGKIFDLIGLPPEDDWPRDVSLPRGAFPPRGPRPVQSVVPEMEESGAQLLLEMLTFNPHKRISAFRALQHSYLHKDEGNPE
T2 sequence (P24385 whole entry partner, species assumed): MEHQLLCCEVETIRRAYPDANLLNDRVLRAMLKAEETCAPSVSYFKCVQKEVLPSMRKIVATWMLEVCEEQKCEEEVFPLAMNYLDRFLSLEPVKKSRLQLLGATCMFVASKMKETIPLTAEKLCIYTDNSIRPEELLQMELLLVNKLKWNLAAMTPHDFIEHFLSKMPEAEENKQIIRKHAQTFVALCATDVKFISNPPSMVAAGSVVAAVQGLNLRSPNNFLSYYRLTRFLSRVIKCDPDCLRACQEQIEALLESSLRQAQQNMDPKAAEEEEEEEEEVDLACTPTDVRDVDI
Outline: as §2

cyclin B/CDK1 enzyme = molecular target: T3, cyclin B/CDK1 enzyme (Homo sapiens, UniProt P06493); assay: CDK1 ELISA kinase assay (phospho-Rb ser 795 detection); type: biochemical
T3 construct: purchased New England BioLabs; host or cells: Sf9 insect cells, recombinant baculovirus
T3 sequence (P06493 whole entry): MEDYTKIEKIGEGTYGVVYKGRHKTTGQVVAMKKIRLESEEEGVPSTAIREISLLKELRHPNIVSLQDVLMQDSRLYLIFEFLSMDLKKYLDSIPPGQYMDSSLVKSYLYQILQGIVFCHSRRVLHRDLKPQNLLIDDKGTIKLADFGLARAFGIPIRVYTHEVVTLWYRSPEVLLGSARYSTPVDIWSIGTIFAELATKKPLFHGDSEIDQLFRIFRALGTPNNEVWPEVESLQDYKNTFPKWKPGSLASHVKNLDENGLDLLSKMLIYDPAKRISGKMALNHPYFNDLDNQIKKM
T3 sequence (P14635 whole entry partner): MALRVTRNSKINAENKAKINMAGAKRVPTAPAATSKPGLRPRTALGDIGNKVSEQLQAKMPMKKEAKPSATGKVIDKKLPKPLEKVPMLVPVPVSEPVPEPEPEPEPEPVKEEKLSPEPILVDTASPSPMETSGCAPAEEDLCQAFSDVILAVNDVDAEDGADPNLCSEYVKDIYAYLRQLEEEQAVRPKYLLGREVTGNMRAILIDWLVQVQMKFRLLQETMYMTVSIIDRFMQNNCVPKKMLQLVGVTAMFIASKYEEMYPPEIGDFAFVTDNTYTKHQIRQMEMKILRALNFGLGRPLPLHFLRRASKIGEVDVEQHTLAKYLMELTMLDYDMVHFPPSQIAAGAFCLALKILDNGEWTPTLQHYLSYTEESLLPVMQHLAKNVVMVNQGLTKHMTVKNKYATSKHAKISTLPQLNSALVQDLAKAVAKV
Outline: as §2

SK-UT-1B = assay: In Vitro Cellular Activity (Table III), SK-UT-1B; type: cell-based; settings: Homo sapiens, Skut1B; SK-UT-1B cells
[2] = iv, 2 mg/kg, dose i.v. 2 mg/kg, read-out: aucinf obs (i.v.)
[3] = po, 50 mg/kg, dose po 50 mg/kg, read-out: aucinf obs (po)
[4] = In Vitro Enzyme Assay, cyclin E/CDK2, read-out: CDK2 IC50
[5] = Homo sapiens, BT-474, 144 h, BT474 cells, 6 days, SRB; read-out: In Vitro Cellular Activity IC50 BT474
[6] = In Vitro Enzyme Assay, cyclin D1/cdk 4, read-out: CDK4 IC50
[7] = In Vitro Enzyme Assay, cyclin B/CDK1, read-out: CDK1 IC50
[8] = In Vitro Enzyme Assays, 200 μM ATP, read-out: CDK4 IC50
[9] = In Vitro Enzyme Assays, read-out: CDK1 IC50
[10] = In Vitro Enzyme Assays, read-out: CDK2 IC50

SMILES | Cl_obs ([1]; dose i.v. 2 mg/kg) | Vss_obs ([1]; dose i.v. 2 mg/kg) | HL_Lambda_z ([1]; dose po 50 mg/kg) | AUC(0-inf) [1, 2] | AUC(0-inf) [1, 3] | bioavailability ([1]; po, 50 mg/kg) | IC50 (MCF-7; 3 days) | melting point | IC50 (cyclin E/CDK2 enzyme; [4]) | IC50 (BT474; [5]) | IC50 (LoVo; 3 days) | IC50 (HCT-116; 3 days) | IC50 (cyclin B/CDK1 enzyme; [7]) | further results
CCCOc1cnc(CN/C=C2\C(=O)NC(=O)c3ccc(C(C)(C)C)cc32)cc1O [Example 530, 6-tert-Butyl-4-{[(4-hydroxy-5-propoxy-pyridin-2-ylmethyl)-amino]-methylene}-4H-isoquinoline-1,3-dione] | 15 mL/min/kg | 0.2 L/kg | 5.3 h | 2240 ng·h/mL | 7200 ng·h/mL | 13% | 700 nM | 162 to 178 °C (dec.) | 960 nM | 240 nM | 280 nM | 430 nM |  | 
O=C1NC(=O)c2ccc(I)cc2/C1=C/NCc1cc(O)c(-c2ccccc2)cn1 [Example 524, (4Z)-{[(4-Hydroxy-5-phenyl-pyridin-2-ylmethyl)-amino]-methylene}-6-iodo-4H-isoquinoline-1,3-dione] | 35 mL/min/kg | 2.4 L/kg |  | 952 ng·h/mL |  | 0% | 890 nM | 292 to 293 °C (dec.) | 2200 nM | 30 nM | 120 nM | 110 nM | 27900 nM | IC50 (cyclin D1/cdk 4 enzyme; [6]): 40 nM
CC(C)(C)c1ccc2c(c1)/C(=C/NCc1ccc(-c3ccoc3)c(O)c1)C(=O)NC2=O [Example 535, 6-tert-Butyl-4-[(4-furan-3-yl-3-hydroxy-benzylamino)-methylene]-4H-isoquinoline-1,3. -dione] | 140 mL/min/kg | 4.1 L/kg | 1.9 h | 238 ng·h/mL | 1240 ng·h/mL | 21% | 2000 nM |  | 4000 nM | 510 nM | 630 nM | 860 nM | 13100 nM | IC50 (cyclin D1/cdk 4 enzyme; [6]): 20 nM
O=C1NC(=O)c2ccccc2/C1=C/Nc1ccc2cn[nH]c2c1 [compound 7] |  |  |  |  |  |  |  |  |  |  |  |  |  | IC50 (cyclin D1/cdk 4 enzyme; [8]): 9500 nM; IC50 (SK-UT-1B): 4300 nM; IC50 (MCF-7; three days): 11200 nM; IC50 (cyclin B/CDK1 enzyme; [9]): > 33000 nM; IC50 (cyclin E/CDK2 enzyme; [10]): 5600 nM; IC50 (HCT-116; three days): 6570 nM
CC(C)(C)c1ccc2c(c1)/C(=C/NCc1cc(O)c(-c3ccccc3)cn1)C(=O)NC2=O [Example 531, 6-tert-Butyl-4-{[(4-hydroxy-5-phenyl-pyridin-2-ylmethyl)-amino]-methylene}-4H-isoquinoline-1,3-dione] | 23 mL/min/kg | 0.9 L/kg | 5.2 h | 1450 ng·h/mL | 879 ng·h/mL | 2.5% | 700 nM | 195 to 218 °C (dec.) | 2600 nM | 40 nM | 100 nM | 150 nM | 16300 nM | 
CN1CCN(c2ccc(N/C=C3\C(=O)NC(=O)c4ccc(-c5ccsc5)cc43)cc2)CC1 [Example 107, (4Z)-4-({[4-(4-Methylpiperazin-1-yl)phenyl]amino}methylene)-6-thien-3-ylisoquinoline-1,3(2H,4H)-dione] | 37 mL/min/kg | 11 L/kg | 7.4 h | 901 ng·h/mL | 4100 ng·h/mL | 18.2% |  | 224 to 226 °C |  |  |  |  |  | IC50 (cyclin D1/cdk 4 enzyme; [8]): 80 nM; IC50 (MCF-7; three days): 2300 nM; IC50 (cyclin B/CDK1 enzyme; [9]): > 50000 nM; IC50 (cyclin E/CDK2 enzyme; [10]): > 50000 nM; IC50 (BT474; Homo sapiens, BT-474, 144 h, BT474 cells, SRB, 6 days; read-out: In Vitro Cellular Activity IC50 BT474): 2500 nM; IC50 (LoVo; three days): 2300 nM; IC50 (HCT-116; three days): 1400 nM
CCCOc1cnc(CN/C=C2\C(=O)NC(=O)c3ccc(C4CCCC4)cc32)cc1O [Example 538, 6-Cyclopentyl-4-{[(4-hydroxy-5-propoxy-pyridin-2-ylmethyl)-amino]-methylene}-4H-isoquinoline-1,3-dione] | 5 mL/min/kg | 0.2 L/kg | 7.1 h | 6630 ng·h/mL | 1040 ng·h/mL | 0.63% | 300 nM | 263 to 266 °C (dec.) | 1200 nM | 60 nM | 70 nM | 150 nM |  | 
